# Assay results published in patent US20260174778A1, “SULFONAMIDE COMPOUND, AND PREPARATION METHOD THEREFOR AND USE THEREOF” (SHANGHAI HENLIUS BIOTECH, INC., priority 2023, published 2026).
# Test system: breast cancer cell line ZR-75-1
# Assay: Inhibition of proliferation of breast cancer cell line ZR-75-1 (CellTiter-Glo)
# Format: cell-based
# Conditions: Homo sapiens, 240 h, proliferation of ZR-75-1 cells, 10 days of incubation, read-out: IC50 (KAT6A)
# From the text: Test Example 1: Experiment for Determining Inhibitory Effects of Compounds on Proliferation of Breast Cancer Cell Line ZR-75-1
# ATP is an indicator of the metabolism of living cells. The CellTiter-Glo® Luminescent Cell Viability Assay is a homogeneous assay method for determining the number of viable cells by quantifying ATP.
# • 1) ZR-75-1 (Cell Bank of Chinese Academy of Sciences, TCHul26) • 2) RPMI-1640 medium (Gibco, 11875-093) • 3) Fetal Bovine Serum, New Zealand (Gibco,10091-148) • 4) Penicillin-streptomycin (10,000 U/mL) (Gibco, 15140-122) • 5) Trypsin-EDTA (0.25%), containing phenol red (Gibco, 25200-072) • 6) DPBS (Shanghai BasalMedia, B210KJ) • 7) Corning® 96-well Clear Flat Bottom Ultra-Low Attachment Microplate (Corning, Cat. No. 3474) • 8) 330 μL 96 Holes Deep Well Plate, transparents, 96 Round Holes, V-shaped Bottom, Low Retention (Stellar Scientific, DP33VR-9-NS) • 9) Corning® 96-well solid white flat-bottom polystyrene microplate (Corning, Cat. No. 3917) • 10) CellTiter-Glo® Luminescent Cell Viability Assay (Promega, G7573) • 11) Countstar® BioMed automatic cell counter • 12) Trypan blue solution, 0.4% (Gibco, Cat. No. 15250061) • 13) 37° C. constant-temperature incubator (Thermo, FORMA STERI-CYCLE i160 LK) • 14) Biosafety cabinet (Thermo, 1379)
# • 1) The formula of the complete medium for ZR-75-1 was as follows: 500 mL RPMI-1640+10% FBS+1% penicillin-streptomycin. • 2) Thirty minutes before cell plating, the complete medium, serum, trypsin, and DPBS for use in ZR-75-1 cell culture were pre-warmed in a water bath at 37° C. • 3) The ZR-75-1 cells were taken out of the incubator, and the medium was removed by pipetting. The cells were rinsed once with 5 mL of DPBS, and then the DPBS was discarded. • 4) The cells in the T75 culture flask were digested with 1-3 mL of (0.25%) trypsin-EDTA. After the trypsin was added, the culture flask was incubated in an incubator at 37° C. for 2-5 min, and dispersion was confirmed by microscopic examination. Tapping or agitating the culture flask was avoided to prevent disturbing the cells, which might cause cell clumping. • 5) 9 mL of the complete medium was added to terminate the digestion, thus forming a cell suspension, which was then mixed well by pipetting. • 6) Cell suspension counting: 20 μL of the cell suspension was pipetted and diluted with 20 µL of the 0.4% trypan blue solution (Gibco, Cat. No. 15250061). The total cell count and the percentage of cell viability were determined using the Countstar® BioMed automatic cell counter. Only cells with a cell viability of no less than 95% were used for the experiment. • 7) The concentration of the cell suspension was adjusted to 2000 cells/well, and the cell suspension was added to a 96-well cell culture plate at 80 μL/well. Treatment of Cells with Compounds • 1) Twenty-four hours after cell plating, the cell plate was taken out. • 2) Each compound was prepared with a complete medium. The stock solution was a 10 mM solution in DMSO, which was first diluted with the medium to 100 μM, then diluted to 1 μM, and finally subjected to a 5-fold serial dilution across a total of 9 concentration gradients. • 3) 20 μL of the compound diluted with the medium was added to each well of the cell culture plate, which already contained 80 μL of the medium. The final concentration started at 200 nM, followed by a 5-fold serial dilution across a total of 9 concentration gradients. Two replicate wells were set for each compound, and each plate could be used to test 3 compounds, with the DMSO content controlled within 0.5%. • 4) The culture medium was replenished once every three days with a complete medium containing the same concentration of the test compound, with 20 μL/well added each time.
# After 10 days of incubation with the compound, the cell culture plate was taken out, and the CellTiter-Glo® reagent was added at 50 μL/well. […]
row,Structure (SMILES),IC50 [nM]
1,"COc1ccc2c(c1S(=O)(=O)Nc1noc3cc(Cn4cccn4)c(F)c(OC)c13)OCCC2(C)C [Compound 27, N-(6-((1H-Pyrazol-1-yl)methyl)-5-fluoro-4-methoxybenzo[d]isoxazol-3-yl)-7-methoxy-4,4-dimethylchromane-8-sulfonamide]",< 0.5
2,"COc1ccc2c(c1S(=O)(=O)Nc1noc3cc(Cn4cccn4)c(Cl)c(OC)c13)OCCC2(C)C [Compound 29, N-(6-((1H-Pyrazol-1-yl)methyl)-5-chloro-4-methoxybenzo[d]isoxazol-3-yl)-7-methoxy-4,4-dimethylchromane-8-sulfonamide]",10 to 50
3,"COc1ccc2c(c1S(=O)(=O)Nc1noc3cc(Cn4cccn4)c(Cl)c(OC)c13)OCCO2 [Compound 30, N-(6-((1H-Pyrazol-1-yl)methyl)-5-chloro-4-methoxybenzo[d]isoxazol-3-yl)-6-methoxy-2,3-dihydrobenzo[b][1,4]dioxine-5-sulfonamide]",10 to 50
4,"COc1ccc2c(c1S(=O)(=O)Nc1noc3cc(Cn4cccn4)c(F)c(Cl)c13)OCCC2(C)C [Compound 31, N-(6-((1H-Pyrazol-1-yl)methyl)-4-chloro-5-fluorobenzo[d]isoxazol-3-yl)-7-methoxy-4,4-dimethylchromane-8-sulfonamide]",0.5 to 2
5,"COc1ccc2c(c1S(=O)(=O)Nc1noc3cc(Cn4cccn4)c(F)c(Cl)c13)OCCO2 [Compound 32, N-(6-((1H-Pyrazol-1-yl)methyl)-4-chloro-5-fluorobenzo[d]isoxazol-3-yl)-6-methoxy-2,3-dihydrobenzo[b][1,4]dioxine-5-sulfonamide]",2 to 10
6,"COc1ccc2c(c1S(=O)(=O)Nc1noc3cc(Cn4cccn4)cc(Cl)c13)OCCO2 [Compound 34, N-(6-((1H-Pyrazol-1-yl)methyl)-4-chlorobenzo[d]isoxazol-3-yl)-6-methoxy-2,3-dihydrobenzo[b][1,4]dioxine-5-sulfonamide]",2 to 10
7,"COc1ccc2c(c1S(=O)(=O)Nc1noc3cc(Cn4cccn4)c(F)c(OC)c13)OCCC21CC1 [Compound 43, N-(6-((1H-Pyrazol-1-yl)methyl)-5-fluoro-4-methoxybenzo[d]isoxazol-3-yl)-7-methoxyspiro[chromane-4,1′-cyclopropane]-8-sulfonamide]",< 0.5
8,"COc1ccc2c(c1S(=O)(=O)Nc1noc3cc(Cn4cccn4)cc(Cl)c13)OCCC2=O [Compound 45, N-(6-((1H-Pyrazol-1-yl)methyl)-4-chlorobenzo[d]isoxazol-3-yl)-7-methoxy-4-oxochromane-8-sulfonamide]",2 to 10
9,"COc1ccc2c(c1S(=O)(=O)Nc1noc3cc(Cn4cccn4)c(F)c(Cl)c13)OCCC2=O [Compound 48, N-(6-((1H-Pyrazol-1-yl)methyl)-4-chloro-5-fluorobenzo[d]isoxazol-3-yl)-7-methoxy-4-oxochromane-8-sulfonamide]",0.5 to 2
10,"COc1ccc2c(c1S(=O)(=O)Nc1noc3cc(Cn4cccn4)c(F)c(Cl)c13)OCCC21CC1 [Compound 49, N-(6-((1H-Pyrazol-1-yl)methyl)-4-chloro-5-fluorobenzo[d]isoxazol-3-yl)-7-methoxyspiro[chromane-4,1′-cyclopropane]-8-sulfonamide]",2 to 10
11,"COc1cccc(OC)c1S(=O)(=O)Nc1nnc2cc(Cn3cccn3)cc(OC)n12 [Compound 58, N-(7-((1H-Pyrazol-1-yl)methyl)-5-methoxy-[1,2,4]triazolo[4,3-a]pyridin-3-yl)-2,6-dimethoxybenzenesulfonamide]",≥ 50

# Further lines, results first:
row,IC50 [nM],Structure (SMILES)
1,< 0.5,"COc1ccc2c(c1S(=O)(=O)Nc1noc3cc(Cn4cccn4)cc(OC)c13)OCCC21CCCC1 [Compound 26, N-(6-((1H-Pyrazol-1-yl)methyl)-4-methoxybenzo[d]isoxazol-3-yl)-7-methoxyspiro[chromane-4,1′-cyclopentane]-8-sulfonamide]"
2,0.5 to 2,"COc1ccc2c(c1S(=O)(=O)Nc1noc3cc(Cn4cccn4)cc(Cl)c13)OCCC2(C)C [Compound 33, N-(6-((1H-Pyrazol-1-yl)methyl)-4-chlorobenzo[d]isoxazol-3-yl)-7-methoxy-4,4-dimethylchromane-8-sulfonamide]"
3,< 0.5,"COc1ccc2c(c1S(=O)(=O)Nc1noc3cc(Cn4cccn4)cc(OC)c13)OCCC21CC1 [Compound 35, N-(6-((1H-Pyrazol-1-yl)methyl)-4-methoxybenzo[d]isoxazol-3-yl)-7-methoxyspiro[chromane-4,1′-cyclopropane]-8-sulfonamide]"
4,< 0.5,"COc1ccc2c(c1S(=O)(=O)Nc1noc3cc(Cn4cccn4)cc(OC)c13)OCCC2O (centres unmarked) [Compound 36, N-(6-((1H-Pyrazol-1-yl)methyl)-4-methoxybenzo[d]isoxazol-3-yl)-4-hydroxy-7-methoxychromane-8-sulfonamide]"
5,< 0.5,"COc1ccc2c(c1S(=O)(=O)Nc1noc3cc(Cn4cccn4)cc(OC)c13)OCCC2=O [Compound 37, N-(6-((1H-Pyrazol-1-yl)methyl)-4-methoxybenzo[d]isoxazol-3-yl)-7-methoxy-4-oxochromane-8-sulfonamide]"
6,< 0.5,"COc1ccc2c(c1S(=O)(=O)Nc1noc3cc(Cn4cccn4)cc(OC)c13)OCCC2(C)O (centres unmarked) [Compound 38, N-(6-((1H-Pyrazol-1-yl)methyl)-4-methoxybenzo[d]isoxazol-3-yl)-4-hydroxy-7-methoxy-4-methylchromane-8-sulfonamide]"
7,< 0.5,"COc1ccc2c(c1S(=O)(=O)Nc1noc3cc(Cn4cccn4)cc(OC)c13)OCCC21SCCS1 [Compound 39, N-(6-((1H-Pyrazol-1-yl)methyl)-4-methoxybenzo[d]isoxazol-3-yl)-7-methoxyspiro[chromane-4,2′-[1,3]dithiolane]-8-sulfonamide]"
8,0.5 to 2,"COc1ccc2c(c1S(=O)(=O)Nc1noc3cc(Cn4cccn4)cc(OC)c13)OCCN2C [Compound 41, N-(6-((1H-Pyrazol-1-yl)methyl)-4-methoxybenzo[d]isoxazol-3-yl)-7-methoxy-4-methyl-3,4-dihydro-2H-benzo[b][1,4]oxazine-8-sulfonamide]"
9,< 0.5,"COc1ccc2c(c1S(=O)(=O)Nc1noc3cc(Cn4cccn4)c(F)c(OC)c13)OCCC21SCCS1 [Compound 44, N-(6-((1H-Pyrazol-1-yl)methyl)-5-fluoro-4-methoxybenzo[d]isoxazol-3-yl)-7-methoxyspiro[chromane-4,2′-[1,3]dithiolane]-8-sulfonamide]"
10,2 to 10,"COc1ccc2c(c1S(=O)(=O)Nc1noc3cc(Cn4cccn4)cc(Cl)c13)OCCC21CC1 [Compound 46, N-(6-((1H-Pyrazol-1-yl)methyl)-4-chlorobenzo[d]isoxazol-3-yl)-7-methoxyspiro[chromane-4,1′-cyclopropane]-8-sulfonamide]"
11,0.5 to 2,"COc1ccc2c(c1S(=O)(=O)Nc1noc3cc(Cn4cccn4)cc(Cl)c13)OCCC21SCCS1 [Compound 47, N-(6-((1H-Pyrazol-1-yl)methyl)-4-chlorobenzo[d]isoxazol-3-yl)-7-methoxyspiro[chromane-4,2′-[1,3]dithiolane]-8-sulfonamide]"
12,≥ 50,"COc1ccc2c(c1S(=O)(=O)Nc1noc3cc(Cn4cccn4)c(Cl)c(OC)c13)OCCC21CC1 [Compound 52, N-(6-((1H-Pyrazol-1-yl)methyl)-5-chloro-4-methoxybenzo[d]isoxazol-3-yl)-7-methoxyspiro[chromane-4,1′-cyclopropane]-8-sulfonamide]"
